Assay results taken from EP0414533A1, “Use of iodopropargyl esters of alpha-amino acid derivatives as antimicrobial agents” (ROHM AND HAAS COMPANY, priority 1989, dated 1991).
Converted amounts (≈) assume the structure as drawn. Where two headings read alike, the source gives them in different places.

Columns and labels:
Type in all cases: cell-based
ALT = experiment: In-vitro plant fungicide test; conditions: Table IVb, read-out: % Control at (ppm) indicated ALT
Fusarium roseum (FUS) = experiment: In-vitro plant fungicide test; conditions: Fusarium sambucinum
[1] = tested on: Phytophthora capsici (PHY); experiment: In-vitro plant fungicide test; conditions: Phytophthora capsici
Piricularia oryzae (PIR) = experiment: microbe, parasite or virus in culture
PSH = experiment: In-vitro plant fungicide test; conditions: Table IVb, read-out: % Control at (ppm) indicated PSH
Rhizoctonia solani (RHI) = experiment: In-vitro plant fungicide test; conditions: Rhizoctonia solani
Septoria nodorum (SEP) = experiment: In-vitro plant fungicide test; conditions: Parastagonospora nodorum
UST = experiment: In-vitro plant fungicide test; conditions: Table IVb, read-out: % Control at (ppm) indicated UST
[2] = tested on: Xanthomonas campestris (XAN); experiment: In-vitro plant fungicide test; design: inhibition of growth: concentration or dose not given beside the values; conditions: Xanthomonas campestris
THREE FUNGI = experiment: MIC test against three fungi in Mycophile Broth, pH 5.0, read after 8 days (Table VII); conditions: 192 h, serial dilutions from 50 ppm, read after 8 days of incubation
[3] = Table IVb, read-out: % Control at (ppm) indicated XAN

Question: For `CC(C)(C)OC(=O)NCC(=O)OCC#CI` [Compound 1, N-t-butoxycarbonylglycine iodopropargyl ester], which inhibition of growth at 1.5 ppm (ALT; 1.5 ppm) is on record?
Answer: Its inhibition of growth at 1.5 ppm is 0%.

Question: And the inhibition of growth at 3 ppm (ALT; 3 ppm)?
Answer: The inhibition of growth at 3 ppm was 50%.

Question: What about the inhibition of growth at 6 ppm (ALT; 6 ppm) of the same molecule?
Answer: Its inhibition of growth at 6 ppm is 50%.

Question: And the inhibition of growth at 12 ppm (ALT; 12 ppm)?
Answer: Its inhibition of growth at 12 ppm is 100%.

Question: And the inhibition of growth at 25 ppm (ALT; 25 ppm)?
Answer: The inhibition of growth at 25 ppm was 100%.

Question: What about the inhibition of growth at 0.2 ppm (ALT; .2 ppm) of the same molecule?
Answer: Its inhibition of growth at 0.2 ppm is 0%.

Question: What about the inhibition of growth at 0.4 ppm (ALT; .4 ppm) of the same molecule?
Answer: Its inhibition of growth at 0.4 ppm is 0%.

Question: And the inhibition of growth at 0.8 ppm (ALT; .8 ppm)?
Answer: Its inhibition of growth at 0.8 ppm is 0%.

Question: And the inhibition of growth at 25 ppm (Fusarium roseum (FUS); read-out: % Control at 25 ppm FUS, 25 ppm, Table IVa, *=Phytotoxic)?
Answer: The inhibition of growth at 25 ppm was 100%.

Question: And the inhibition of growth at 1.5 ppm (Fusarium roseum (FUS); read-out: % Control at (ppm) indicated FUS, 1.5 ppm, Table IVb)?
Answer: Its inhibition of growth at 1.5 ppm is 0%.

Question: And the inhibition of growth at 3 ppm (Fusarium roseum (FUS); read-out: % Control at (ppm) indicated FUS, 3 ppm, Table IVb)?
Answer: The inhibition of growth at 3 ppm was 75%.

Question: And the inhibition of growth at 6 ppm (Fusarium roseum (FUS); read-out: % Control at (ppm) indicated FUS, 6 ppm, Table IVb)?
Answer: The inhibition of growth at 6 ppm was 100%.

Question: What about the inhibition of growth at 12 ppm (Fusarium roseum (FUS); read-out: % Control at (ppm) indicated FUS, 12 ppm, Table IVb) of the same molecule?
Answer: Its inhibition of growth at 12 ppm is 100%.

Question: And the inhibition of growth at 25 ppm (Fusarium roseum (FUS); read-out: % Control at (ppm) indicated FUS, 25 ppm, Table IVb)?
Answer: The inhibition of growth at 25 ppm was 100%.

Question: And the inhibition of growth at 0.2 ppm (Fusarium roseum (FUS); read-out: % Control at (ppm) indicated FUS, .2 ppm, Table IVb)?
Answer: Its inhibition of growth at 0.2 ppm is 0%.

Question: What about the inhibition of growth at 0.4 ppm (Fusarium roseum (FUS); read-out: % Control at (ppm) indicated FUS, .4 ppm, Table IVb) of the same molecule?
Answer: The inhibition of growth at 0.4 ppm was 0%.

Question: What about the inhibition of growth at 0.8 ppm (Fusarium roseum (FUS); read-out: % Control at (ppm) indicated FUS, .8 ppm, Table IVb) of the same molecule?
Answer: The inhibition of growth at 0.8 ppm was 0%.

Question: And the inhibition of growth at 1.5 ppm ([1]; 1.5 ppm, Table IVb, read-out: % Control at (ppm) indicated PHY)?
Answer: The inhibition of growth at 1.5 ppm was 50%.

Question: What about the inhibition of growth at 6 ppm ([1]; 6 ppm, Table IVb, read-out: % Control at (ppm) indicated PHY) of the same molecule?
Answer: The inhibition of growth at 6 ppm was 100%.

Question: And the inhibition of growth at 25 ppm ([1]; Table IVa, read-out: % Control at 25 ppm PHY)?
Answer: The inhibition of growth at 25 ppm was 100%.

Question: And the inhibition of growth at 25 ppm ([1]; Table IVb, read-out: % Control at (ppm) indicated PHY)?
Answer: Its inhibition of growth at 25 ppm is 100%.

Question: And the inhibition of growth at 0.2 ppm ([1]; .2 ppm, Table IVb, read-out: % Control at (ppm) indicated PHY)?
Answer: Its inhibition of growth at 0.2 ppm is 0%.

Question: What about the inhibition of growth at 0.4 ppm ([1]; .4 ppm, Table IVb, read-out: % Control at (ppm) indicated PHY) of the same molecule?
Answer: Its inhibition of growth at 0.4 ppm is 0%.

Question: What about the inhibition of growth at 0.8 ppm ([1]; .8 ppm, Table IVb, read-out: % Control at (ppm) indicated PHY) of the same molecule?
Answer: The inhibition of growth at 0.8 ppm was 0%.

Question: What about the inhibition of growth at 1.5 ppm (Piricularia oryzae (PIR); 1.5 ppm, read-out: % Control at (ppm) indicated PIR) of the same molecule?
Answer: Its inhibition of growth at 1.5 ppm is 50%.

Question: And the inhibition of growth at 6 ppm (Piricularia oryzae (PIR); 6 ppm, read-out: % Control at (ppm) indicated PIR)?
Answer: Its inhibition of growth at 6 ppm is 100%.

Question: What about the inhibition of growth at 25 ppm (Piricularia oryzae (PIR); 25 ppm, read-out: % Control at (ppm) indicated PIR) of the same molecule?
Answer: Its inhibition of growth at 25 ppm is 100%.

Question: And the inhibition of growth at 0.2 ppm (Piricularia oryzae (PIR); .2 ppm, read-out: % Control at (ppm) indicated PIR)?
Answer: The inhibition of growth at 0.2 ppm was 0%.

Question: And the inhibition of growth at 0.4 ppm (Piricularia oryzae (PIR); .4 ppm, read-out: % Control at (ppm) indicated PIR)?
Answer: The inhibition of growth at 0.4 ppm was 0%.

Question: And the inhibition of growth at 0.8 ppm (Piricularia oryzae (PIR); .8 ppm, read-out: % Control at (ppm) indicated PIR)?
Answer: The inhibition of growth at 0.8 ppm was 0%.

Question: And the inhibition of growth at 25 ppm (Piricularia oryzae (PIR); read-out: % Control at 25 ppm PIR)?
Answer: The inhibition of growth at 25 ppm was 100%.

Question: What about the inhibition of growth at 1.5 ppm (PSH; 1.5 ppm) of the same molecule?
Answer: Its inhibition of growth at 1.5 ppm is 100%.

Question: And the inhibition of growth at 6 ppm (PSH; 6 ppm)?
Answer: The inhibition of growth at 6 ppm was 100%.

Question: And the inhibition of growth at 25 ppm (PSH; 25 ppm)?
Answer: The inhibition of growth at 25 ppm was 100%.

Question: And the inhibition of growth at 0.2 ppm (PSH; .2 ppm)?
Answer: The inhibition of growth at 0.2 ppm was 0%.

Question: And the inhibition of growth at 0.4 ppm (PSH; .4 ppm)?
Answer: The inhibition of growth at 0.4 ppm was 0%.

Question: And the inhibition of growth at 0.8 ppm (PSH; .8 ppm)?
Answer: Its inhibition of growth at 0.8 ppm is 75%.

Question: What about the inhibition of growth at 1.5 ppm (Rhizoctonia solani (RHI); 1.5 ppm, Table IVb, read-out: % Control at (ppm) indicated RHI) of the same molecule?
Answer: Its inhibition of growth at 1.5 ppm is 100%.

Question: What about the inhibition of growth at 6 ppm (Rhizoctonia solani (RHI); 6 ppm, Table IVb, read-out: % Control at (ppm) indicated RHI) of the same molecule?
Answer: The inhibition of growth at 6 ppm was 100%.

Question: What about the inhibition of growth at 25 ppm (Rhizoctonia solani (RHI); Table IVa, read-out: % Control at 25 ppm RHI) of the same molecule?
Answer: Its inhibition of growth at 25 ppm is 100%.

Question: And the inhibition of growth at 25 ppm (Rhizoctonia solani (RHI); Table IVb, read-out: % Control at (ppm) indicated RHI)?
Answer: Its inhibition of growth at 25 ppm is 100%.

Question: What about the inhibition of growth at 0.2 ppm (Rhizoctonia solani (RHI); .2 ppm, Table IVb, read-out: % Control at (ppm) indicated RHI) of the same molecule?
Answer: The inhibition of growth at 0.2 ppm was 0%.

Question: And the inhibition of growth at 0.4 ppm (Rhizoctonia solani (RHI); .4 ppm, Table IVb, read-out: % Control at (ppm) indicated RHI)?
Answer: Its inhibition of growth at 0.4 ppm is 75%.

Question: And the inhibition of growth at 0.8 ppm (Rhizoctonia solani (RHI); .8 ppm, Table IVb, read-out: % Control at (ppm) indicated RHI)?
Answer: The inhibition of growth at 0.8 ppm was 100%.

Question: What about the inhibition of growth at 1.5 ppm (Septoria nodorum (SEP); 1.5 ppm, Table IVb, read-out: % Control at (ppm) indicated SEP) of the same molecule?
Answer: Its inhibition of growth at 1.5 ppm is 0%.

Question: And the inhibition of growth at 6 ppm (Septoria nodorum (SEP); 6 ppm, Table IVb, read-out: % Control at (ppm) indicated SEP)?
Answer: The inhibition of growth at 6 ppm was 100%.

Question: What about the inhibition of growth at 25 ppm (Septoria nodorum (SEP); Table IVa, read-out: % Control at 25 ppm SEP) of the same molecule?
Answer: Its inhibition of growth at 25 ppm is 100%.

Question: What about the inhibition of growth at 25 ppm (Septoria nodorum (SEP); Table IVb, read-out: % Control at (ppm) indicated SEP) of the same molecule?
Answer: The inhibition of growth at 25 ppm was 100%.

Question: What about the inhibition of growth at 0.2 ppm (Septoria nodorum (SEP); .2 ppm, Table IVb, read-out: % Control at (ppm) indicated SEP) of the same molecule?
Answer: The inhibition of growth at 0.2 ppm was 0%.

Question: And the inhibition of growth at 0.4 ppm (Septoria nodorum (SEP); .4 ppm, Table IVb, read-out: % Control at (ppm) indicated SEP)?
Answer: The inhibition of growth at 0.4 ppm was 0%.

Question: And the inhibition of growth at 0.8 ppm (Septoria nodorum (SEP); .8 ppm, Table IVb, read-out: % Control at (ppm) indicated SEP)?
Answer: The inhibition of growth at 0.8 ppm was 0%.

Question: And the inhibition of growth at 1.5 ppm (UST; 1.5 ppm)?
Answer: The inhibition of growth at 1.5 ppm was 100%.

Question: What about the inhibition of growth at 3 ppm (UST; 3 ppm) of the same molecule?
Answer: The inhibition of growth at 3 ppm was 100%.

Question: What about the inhibition of growth at 6 ppm (UST; 6 ppm) of the same molecule?
Answer: Its inhibition of growth at 6 ppm is 100%.

Question: And the inhibition of growth at 12 ppm (UST; 12 ppm)?
Answer: Its inhibition of growth at 12 ppm is 100%.

Question: And the inhibition of growth at 25 ppm (UST; 25 ppm)?
Answer: The inhibition of growth at 25 ppm was 100%.

Question: And the inhibition of growth at 0.2 ppm (UST; .2 ppm)?
Answer: The inhibition of growth at 0.2 ppm was 0%.

Question: And the inhibition of growth at 0.4 ppm (UST; .4 ppm)?
Answer: The inhibition of growth at 0.4 ppm was 0%.

Question: What about the inhibition of growth at 0.8 ppm (UST; .8 ppm) of the same molecule?
Answer: The inhibition of growth at 0.8 ppm was 50%.

Question: And the inhibition of growth at 1.5 ppm ([2]; 1.5 ppm, Table IVb, read-out: % Control at (ppm) indicated XAN)?
Answer: Its inhibition of growth at 1.5 ppm is 0%.

Question: What about the inhibition of growth at 3 ppm ([2]; 3 ppm, Table IVb, read-out: % Control at (ppm) indicated XAN) of the same molecule?
Answer: The inhibition of growth at 3 ppm was 0%.

Question: And the inhibition of growth at 6 ppm ([2]; 6 ppm, Table IVb, read-out: % Control at (ppm) indicated XAN)?
Answer: Its inhibition of growth at 6 ppm is 0%.

Question: And the inhibition of growth at 25 ppm ([2]; Table IVa, read-out: % Control at 25 ppm XAN)?
Answer: Its inhibition of growth at 25 ppm is 0%.

Question: And the inhibition of growth at 25 ppm [2, 3]?
Answer: Its inhibition of growth at 25 ppm is 0%.

Question: And the inhibition of growth at 0.2 ppm ([2]; .2 ppm, Table IVb, read-out: % Control at (ppm) indicated XAN)?
Answer: Its inhibition of growth at 0.2 ppm is 0%.

Question: And the inhibition of growth at 0.4 ppm ([2]; .4 ppm, Table IVb, read-out: % Control at (ppm) indicated XAN)?
Answer: Its inhibition of growth at 0.4 ppm is 0%.

Question: And the inhibition of growth at 0.8 ppm ([2]; .8 ppm, Table IVb, read-out: % Control at (ppm) indicated XAN)?
Answer: The inhibition of growth at 0.8 ppm was 0%.

Question: What about the inhibition of growth [2, 3] of the same molecule?
Answer: The inhibition of growth was 0%.

Question: And the MIC (THREE FUNGI; Aspergillus niger, read-out: MIC ANIG)?
Answer: The MIC was 3.2 µg/mL (≈ 9.44 µM).

Question: What about the MIC (THREE FUNGI; Aureobasidium pullulans, read-out: MIC APUL) of the same molecule?
Answer: Its MIC is 12.5 µg/mL (≈ 36.9 µM).

Question: And the MIC (THREE FUNGI; Gloeophyllum trabeum, read-out: MIC GTRA)?
Answer: The MIC was 1.6 µg/mL (≈ 4.72 µM).
